{"source": "patent US20230104477A1", "about": "“USE OF DEHYDROASCORBIC ACID AGAINST NEMATODE INFECTION IN PLANTS” (Universiteit Gent, priority 2019, published 2023)", "key": {"rice plants": {"system": "rice plants", "assay": "Root growth in rice after foliar spray, uninfected conditions", "type": "in vivo, Oryza sativa cv. Nipponbare", "conditions": "14-days old rice, foliar spray 20 mM, 12 DAS, vs water control", "experimental": "(§1) Rice—Seeds of wild-type rice Oryza sativa cv. Nipponbare were obtained from USDA (GSOR-100). Seeds were germinated on wet filter paper for 4-5 days at 30° C. and seedlings were then transferred to SAP-substrate (Sand mixed with Absorbent Polymer AquaPerla®, DCM, Belgium) and further grown at 28° C., under a light regime of (day/night) 12/12. Hoagland solution was given as a source of nutrients 3 times a week.\n(§2) Reduced Ascorbic acid (AA, 20 mM), dehydroascorbic acid (DHA, 20 mM), ascorbate oxidase (AO, 20 U/ml), methyl jasmonate (MeJA, 100 μM), aminooxyacetic acid (AoA, 12.5 mM), diethyldithiocarbamic acid (DIECA, 100 μM) and ethephon (100 μM) were purchased from Sigma and dissolved in water (except MeJA that was first dissolved in a drop of ETOH) to attain the indicated concentration.\n(§3) For foliar application, all chemicals were dissolved in water and 0.02% (v/v) of Tween20 as a surfactant was added prior to spraying on aerial portions of the rice plants. Control plants were sprayed with distilled water containing 0.02% Tween20. Eight plants per treatment were sprayed until run-off with 6.5 mL of solution (at 24 h prior to nematode inoculation, in cases where infected plants were used). The substrate was covered to avoid direct contact with the roots and/or nematodes."}, "M. graminicola": {"system": "M. graminicola", "assay": "Infection experiment with JA/ET mutant and biosynthesis inhibitors, foliar spray", "type": "in vivo, Meloidogyne graminicola", "conditions": "12 days after inoculation", "experimental": "(§4) M. graminicola originally isolated in the Philippines (Batangas) was cultured on susceptible rice plants. Second stage juveniles (J2s) were extracted using a sieve/tray extraction method and inoculation was done as described in Nahar et al., (2011). For susceptibility assays, at least two independent experiments were carried out, each time including eight plants per treatment. Twelve days after inoculation (dai), roots were stained using acid fuchsine (Nahar et al., 2011) to count galls and number of nematodes in the roots.\nas §2, §3"}, "[1]": {"assay": "Ascorbate measurements in shoots and roots of foliar sprayed rice", "type": "in vivo, Oryza sativa cv. Nipponbare", "conditions": "24 h after foliar application; vs control plants", "experimental": "as §3\n[…] In each assay, 100 mg of crushed material was used per sample, and at least 4 biological replicates were analyzed per treatment. Reduced and oxidized AA were measured according to the method described in Ueda et al., 2013. Absorbance was monitored using a microplate reader (TECAN—Infinite200pro)."}, "H2O2": {"system": "H2O2", "assay": "H2O2 measurements in roots (xylenol orange method)", "type": "in vivo, rice", "conditions": "20 mM DHA-pretreated plants upon M. graminicola infection, 1 dpi", "experimental": "H2O2 measurements—14 days old rice plants were foliar sprayed with 20 mM DHA and 1 day later, plants were inoculated with Meloidogyne graminicola nematodes (Mg+) or mock inoculated (Mg−). One day after inoculation, samples were collected. Root samples were flash-frozen and ground under liquid nitrogen. Per sample, 100 mg of material was used to execute the xylenol orange method for H2O2 quantification described by Cheeseman (2006). After 5% trichloroacetic acid extraction, and 30 minutes reaction with the ferrous ammonium sulphate/xylenol orange (FOX) reagent, the absorbance was measured at 560 nm. The concentration was calculated by comparison with a standard curve of known H2O2 concentrations. The assay was done with 3 biological replicates, which each consisted of pooled material of 4 plants."}, "Heterodera schachtii": {"system": "Heterodera schachtii", "assay": "Sugar beet tolerance to beet cyst nematode infection after foliar spray", "type": "in vivo", "conditions": "250 H. schachtii per plant", "experimental": "(§5) Sugar beet—seeds of cv. Amarok were germinated on moist tissue for 4-5 days at 25° C. For longer experiments seedlings were transplanted to polyvinyl-chloride (PVC) tubes containing fine soil particles. All experiments were conducted in a plant growth room at 25° C., with a 16/8 h day/night regime. The plants were fertilized by supplying Hoagland solution as a source of nutrients 3 times a week.\nBNC cysts were obtained from Iran and were maintained on sugar beet (cv. Amarok) plants. Cysts were obtained from stock cultures, by washing the infected soil and letting the cysts to float in water. Full cysts with eggs were hand-picked and allowed to dry before setting up for hatching. For second-stage juveniles (J2) to hatch, cysts were placed in 3 mM of […] and transferred to an incubator/shaker at a temperature of 25.5° C. at 70 rpm for 4 days (Kammerhofer et al., 2015). J2 were re-suspended in water and counted under a stereomicroscope. Around 250-300 J2 nematodes were inoculated per plant. One day before and after inoculation, plants were not supplied with any nutrients or water. To investigate the plant tolerance to BCN infection root length, shoot height, fresh root weight as well as the number of cysts were measured at different time points after spraying and/or inoculation. For all experiments, 8 individual plants were used per treatment.\nas §2, §3"}, "[2]": {"system": "root-knot nematode Meloidogyne graminicola", "assay": "Susceptibility assay on rice plants, soil drench", "type": "in vivo", "conditions": "soil drench 24 h prior to inoculation (AA 20 mM, DHA 20 mM, AO 20 U/mL); twelve days after inoculation; vs control", "experimental": "as §4, §2\nFor soil application, 6.5 mL of each solution was drenched on the substrate, 24 h prior to nematode inoculation."}, "Turnip mosaic virus": {"system": "Turnip mosaic virus", "conditions": "applied to Brassica rapa plants (Fujiwara et al., 2013); cited from earlier work"}, "sugar beet plants": {"system": "sugar beet plants", "assay": "Root and shoot growth in uninfected sugar beet plants after foliar spray", "type": "in vivo, Beta vulgaris cv. Amarok", "experimental": "as §5, §2, §3"}, "rice seedlings": {"system": "rice seedlings", "assay": "Evaluation of seedling growth after drenching rice seedlings", "type": "in vivo, Oryza sativa cv. Nipponbare", "experimental": "as §1, §2\n3-days old rice seedlings were drenched with 1 mL of AA (20 mM), AO (20 U/mL), DHA (20 mM) or water (H2O) as a negative control. Rice root length and dry root weight as well as the number of embryonic crown roots (ECR) were measured 5 days after drenching."}, "[3]": {"conditions": "three-weeks old sugar beet, foliar spray (AA 20 mM, AO 20 U/mL, DHA 20 mM), 4 DAS (3 dai)"}, "[4]": {"conditions": "two-week old sugar beet, foliar spray, seven days later, effect not statistically significant"}, "[5]": {"conditions": "3-days old rice seedlings drenched with 1 mL (AA 20 mM, DHA 20 mM, AO 20 U/ml), 5 days after drenching, vs water control"}}, "data": [{"molecule": "O=C1O[C@H]([C@@H](O)CO)C(=O)C1=O", "note": "[DHA, (5R)-5-[(1S)-1,2-dihydroxyethyl]furan-2,3,4(5H)-trione]", "values": [{"measurement": "root length", "setting": "rice plants", "result": "significantly longer roots"}, {"measurement": "reduction in number of galls", "setting": "M. graminicola; Osjarl (JA signalling) mutants sprayed with DHA 20 mM", "result": "25-30%"}, {"measurement": "reduction in number of galls", "setting": "M. graminicola; wild-type Nipponbare sprayed with DHA 20 mM vs unsprayed wild-type", "result": "50-70%"}, {"measurement": "amount of DHA in shoots", "setting": "[1]", "result": "significantly higher amounts of DHA"}, {"measurement": "total ascorbate level in roots", "setting": "[1]", "result": "increased"}, {"measurement": "H2O2 levels in roots", "setting": "H2O2", "result": "induced"}, {"measurement": "root system development", "setting": "Heterodera schachtii; foliar spray DHA 20 mM, 43 DAS, vs control", "result": "better developed root system"}, {"measurement": "number of cysts", "setting": "Heterodera schachtii; foliar spray DHA 20 mM, 43 DAS, vs untreated plants", "result": "significantly lower"}, {"measurement": "fresh root weight", "setting": "Heterodera schachtii; foliar spray, 43 DAS (42 days after inoculation), vs control", "result": "significantly more fresh root weight"}, {"measurement": "root length", "setting": "Heterodera schachtii; [3]", "result": "significantly increased"}, {"measurement": "root weight", "setting": "Heterodera schachtii; [3]", "result": "significantly increased"}, {"measurement": "shoot weight", "setting": "Heterodera schachtii; [3]", "result": "significantly increased"}, {"measurement": "shoot height", "setting": "Heterodera schachtii; three-weeks old sugar beet, foliar spray (AA 20 mM, AO 20 U/mL, DHA 20 mM), 4 DAS (3 dai), DHA effect not statistically significant", "result": "positively influenced"}, {"measurement": "number of galls", "setting": "[2]", "result": "significantly lower number of galls"}, {"measurement": "number of nematodes", "setting": "[2]", "result": "lower number of nematodes"}, {"measurement": "antiviral effect", "setting": "Turnip mosaic virus", "result": "antiviral effect"}, {"measurement": "general appearance of plants", "setting": "sugar beet plants; sugar beet, foliar spray DHA 20 mM, throughout the experiment", "result": "looked more vigorous"}, {"measurement": "root length", "setting": "sugar beet plants; two-week old sugar beet, foliar spray (DHA 20 mM, AO 20 U/mL), seven days later, vs water control", "result": "significantly longer roots"}, {"measurement": "fresh root weight", "setting": "sugar beet plants; [4]", "result": "positively affected"}, {"measurement": "shoot length", "setting": "sugar beet plants; [4]", "result": "positively affected"}, {"measurement": "dry root weight", "setting": "rice seedlings; [5]", "result": "significantly higher"}, {"measurement": "number of embryonic crown roots (ECR)", "setting": "rice seedlings; [5]", "result": "significantly higher"}, {"measurement": "root length", "setting": "rice seedlings; [5]", "result": "significantly higher"}, {"measurement": "general appearance of seedlings", "setting": "rice seedlings; rice seedlings drenched with DHA 20 mM", "result": "looked more vigorous"}]}]}
